Results: patent US9328138B2 (priority 2011, dated 2016)
Counter-ions that a name gives are not always drawn.

What was measured:
[1] = biological target: HCV NS3 protease genotype 3a (3A-1) (Hepatitis C virus genotype 3a, UniProt Q81258); test: HCV NS3 protease time-resolved fluorescence (TRF) assay, genotype 3a; type: biochemical; details: Ki 3a
In short: (§1)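 Steps: compound plus NS3/NS4A enzyme for 10 minutes; add peptide substrate to 25 nM; let cleavage proceed 6 hours at room temperature; read product fluorescence (340 nm excitation, 615 nm emission, delayed 400 μs). Enzyme levels gave signal/background 5-20.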

[2] = biological target: T1, HCV genotype 1b (BK) NS3 modified enzyme with a R155K mutation (Hepatitis C virus genotype 1b, UniProt P26663, R1181K); test: HCV NS3 protease time-resolved fluorescence (TRF) assay, genotype 1b R155K; type: biochemical; details: Ki 1b R155K
T1 construct: HCV genotype 1b (BK) NS3 modified enzyme
In short: as §1

[3] = first of two values printed in the cell (not explained)
[4] = second of two values printed in the cell (not explained)
[5] = genotype 1b (BK) NS3 R155K, single value

Compound	Ki [1]	Ki [2, 3]	Ki [2, 4]	Ki [2, 5]
C=C[C@@H]1C[C@]1(NC(=O)[C@@H]1C[C@@H]2CN1C(=O)[C@H](C1CCCCC1)NC(=O)O[C@@H]1C[C@H]1CCCCCc1c(nc3ccccc3c1OCCCN1CCOCC1)O2)C(=O)NS(=O)(=O)C1(C)CC1 [Example 240, 4-(3-{[(1aR,5S,8S,10R,22aR)-5-cyclohexyl-8-{[(1R,2S)-2-ethenyl-1-{[(1-methylcyclopropyl)sulfonyl]carbamoyl}cyclopropyl]carbamoyl}-3,6-dioxo-1,1a,3,4,5,6,9,10,18,19,20,21,22,22a-tetradecahydro-8H-7,10-methanocyclopropa[18,19][1,10,3,6]dioxadiazacyclononadecino[11,12-b]quinolin-17-yl]oxy}propyl)morpholin-4-ium formate]	2.9 nM	0.019 nM	0.28 nM	–
C=C[C@@H]1C[C@]1(NC(=O)[C@@H]1C[C@@H]2CN1C(=O)[C@H](C1CCCC1)NC(=O)O[C@H]1C[C@@H]1CC/C=C/Cc1c(nc3ccccc3c1OC)O2)C(=O)NS(=O)(=O)C1CC1 [Example 12, (1aS,5S,8S,10R,19E,22aS)-5-cyclo pentyl-N-{(1R,2S)-1-[(cyclopropylsulfonyl)carbamoyl]-2-ethenylcyclopropyl}-17-methoxy-3,6-dioxo-1,1a,3,4,5,6,9,10,18,21,22,22a-dodecahydro-8H-7,10-methanocyclopropa[18,19][1,10,3,6] dioxadiazacyclononadecino[11,12-&]quinoline-8-carboxamide]	340 nM	–	–	3.3 nM
C=C[C@@H]1C[C@]1(NC(=O)[C@@H]1C[C@@H]2CN1C(=O)[C@H](C1CCCCC1)NC(=O)O[C@@H]1C[C@H]1CCCCCc1c(nc3ccccc3c1OC1CCN(CCOC)CC1)O2)C(=O)NS(=O)(=O)C1(C)CC1 [Example 237, 4-{[(1aR,5S,8S,10R,22aR)-5-cyclohexyl-8-{[(1R,2S)-2-ethenyl-1-{[(1-methylcyclopropyl)sulfonyl]carbamoyl}cyclopropyl]carbamoyl}-3,6-dioxo-1,1a,3,4,5,6,9,10,18,19,20,21,22,22a-tetradecahydro-8H-7,10-methanocyclopropa[18,19][1,10,3,6]dioxadiazacyclononadecino[11,12-b]quinolin-17-yl]oxy}-1-(2-methoxyethyl)piperidinium formate]	0.8 nM	0.013 nM	0.098 nM	–
C=C[C@@H]1C[C@]1(NC(=O)[C@@H]1C[C@@H]2CN1C(=O)[C@H](C(C)(C)C)NC(=O)O[C@@H]1CCC[C@H]1CCCCCc1c(nc3ccccc3c1OCCN1CCOCC1)O2)C(=O)NS(=O)(=O)C1CC1 [Example 104, (3aR,7S,10S,12R,24aR)-7-tert-butyl-N-{(1R,2S)-1-[(cyclopropylsulfonyl)carbamoyl]-2-ethenylcyclopropyl}-19-[2-(morpholin-4-yl)ethoxy]-5,8-dioxo-1,2,3,3a,5,6,7,8,11,12,20, 21,22,23,24,24a-hexadecahydro-10H-9,12-methanocyclopenta[18,19] [1,10,3,6]dioxadiaza-cyclononadecino[11,12-b] quinoline-10-carboxamide]	26 nM	–	–	1.3 nM
C=C[C@@H]1C[C@]1(NC(=O)[C@@H]1C[C@@H]2CN1C(=O)[C@H](C1CCCCC1)NC(=O)O[C@@H]1C[C@H]1CCCCCc1c(nc3ccccc3c1OCCCSc1nccs1)O2)C(=O)NS(=O)(=O)C1(C)CC1 [Example 172]	14 nM	–	–	1.1 nM
CC1(S(=O)(=O)NC(=O)[C@@]23C[C@H]2/C=C\CCCCC[C@@H]2NC(=O)O[C@@H]4C[C@H]4CCC/C=C/c4c(nc5ccccc5c4OCCCN4CCCC4)O[C@@H]4C[C@@H](C(=O)N3)N(C4)C2=O)CC1 [Example 303, (1aR,5S,11Z,12aS,13aR,16S,19R,27E, 31aR)-N-[(1-methylcyclopropyl)sulfonyl]-3,15,33-trioxo-26-[3-(pyrrolidin-1-yl)propoxy]-1,1a,3,4,5,6,7,8,9,10,12a,13,15,16,18, 19,29,30,31,31a-icosahydro-5,17:16,19-dimethanodicyclopropa[12,13:28,29] [1,20,3,14,17] dioxatriazacyclononacosino[21,22-b]quinoline-13a(14H)-carboxamide]	3.6 nM	–	–	0.28 nM
